Laboratory results from ChEMBL document CHEMBL1201862, “PubChem BioAssay data set” (2004).
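The compound was tested at five concentrations on cells cultured in 96-well plates, with a 48-hour exposure period. Abbreviation: GI50, concentration required for 50% inhibition of growth.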 The source made the active and inactive calls. No stated cut-off is given here; in the data, active = GI50 up to about 1.1 µM and inactive = higher.

Key:
Experiment in all cases: growth of human tumour cells (NCI), 48 h
BT-549 = system: BT-549
COLO 205 = system: COLO 205
EKVX = system: EKVX
HCT-15 = system: HCT-15
HL-60 = system: HL-60
HT-29 = system: HT-29
IGROV-1 = system: IGROV-1
K562 = system: K562
MDA-MB-231 = system: MDA-MB-231
MDA-N = system: MDA-N
MOLT-4 = system: MOLT-4
Malme-3M = system: Malme-3M
NCI-H226 = system: NCI-H226
OVCAR-5 = system: OVCAR-5
PC-3 = system: PC-3
RXF 393 = system: RXF 393
SF-295 = system: SF-295
SNB-19 = system: SNB-19
U-251 = system: U-251
UO-31 = system: UO-31

Measured: GI50

COc1cc(C(=O)n2c3ccc(Br)cc3c3nc4ccccc4nc32)cc(OC)c1OC
inactive: BT-549 37.3 µM | COLO 205 > 100 µM | EKVX > 100 µM | HL-60 > 100 µM | HT-29 > 100 µM | IGROV-1 > 100 µM | K562 > 100 µM | MDA-MB-231 72.8 µM | MDA-N > 100 µM | MOLT-4 50.8 µM | Malme-3M > 100 µM | NCI-H226 > 100 µM | OVCAR-5 > 100 µM | PC-3 > 100 µM | RXF 393 19.7 µM | SF-295 64 µM | SNB-19 51.6 µM | U-251 > 100 µM | UO-31 > 100 µM
> 100 µM: HCT-15

O=c1ccc(=O)n(-c2ccccc2)[nH]1
> 100 µM: HCT-15
inactive: BT-549 > 100 µM | COLO 205 > 100 µM | EKVX > 100 µM | HL-60 > 100 µM | HT-29 > 100 µM | IGROV-1 > 100 µM | K562 > 100 µM | MDA-MB-231 > 100 µM | MDA-N > 100 µM | MOLT-4 > 100 µM | Malme-3M > 100 µM | NCI-H226 > 100 µM | OVCAR-5 > 100 µM | PC-3 > 100 µM | RXF 393 > 100 µM | SF-295 > 100 µM | SNB-19 > 100 µM | U-251 > 100 µM | UO-31 > 100 µM

Cc1cccc(N2C(=O)C3ON(C(C(N)=O)c4ccccc4)C(c4c5ccccc5c(Cl)c5ccccc45)C3C2=O)c1C (stereo not given)
inactive: BT-549 9.98 µM | COLO 205 9.42 µM | EKVX 9.23 µM | HL-60 4.12 µM | HT-29 7.82 µM | IGROV-1 11.6 µM | K562 12.7 µM | MDA-MB-231 9.42 µM | MDA-N 3.3 µM | MOLT-4 1.89 µM | Malme-3M 11.4 µM | NCI-H226 7.13 µM | OVCAR-5 10.3 µM | PC-3 7.78 µM | RXF 393 5.66 µM | SF-295 9.66 µM | SNB-19 8.85 µM | U-251 8.02 µM | UO-31 16.4 µM
7.38 µM: HCT-15
